Assays:
Format in all cases: in vivo, mice
[1] = tested on: Delayed-type hypersensitivity (DTH) induced by sheep red blood cell (SRBC); test: Mouse footpad swelling assay (DTH); settings: for Footpad swelling: 24 hours after second SRBC injection, n=10
Description: For each study, forty mice were divided into 4 groups with 10 mice per group (n=10). These four groups were control, theaflavin (low), theaflavin (mid), and theaflavin (high). The latter three were theaflavin-treated groups in which theaflavin (capsule, Xiayie™, prepared according to the method described in U.S. Pat. […] […] […] […] Statistical differences between groups were calculated using SPSS 11.0 with student t test plus Dunnett method.
Delayed-type hypersensitivity (DTH) is an immune reaction induced by antigen. In the mice footpads at which DTH was elicited, transient swellings which usually peaked at 24-48 hours after the antigen challenge was observed. This assay of measuring footpad swelling of mice caused by a DTH reaction was used to test effects of theaflavin is on immune responses.
The Sheep red blood cell (SRBC) was taken from sheep and washed triple with physiological saline, centrifugated at 1500 g for 10 min, and adjusted to a final concentration of 2%. Each mouse was given a single injection of 0.2 ml of prepared 2% SRBC. On day 4 after the SRBC injection, each mouse was given an […] injection (the second injection) of 0.02 ml of prepared 20% SRBC. Mouse footpad thicknesses were measured before and 24 hours after the second injection. Mouse footpad swelling values were calculated from the difference between these two measurements.

[2] = Mouse body weight after 30-day theaflavin feeding; settings: for BW change: mice, n=10, 30 days
Description: (§1) Female mice (Kuengming, China) weighing 18-22 g were used. The animals were housed in individual stainless steel cages in an air-conditioned room under a 12:12 hour light:dark cycle. A commercial pellet diet and water were provided throughout the experiment. All procedures were conducted in accordance with the P.R. China legislation under No. 8910M047 on the use and care of laboratory animals.
(§2) For each study, forty mice were divided into 4 groups with 10 mice per group (n=10). These four groups were control, theaflavin (low), theaflavin (mid), and theaflavin (high). The latter three were theaflavin-treated groups in which theaflavin (capsule, Xiayie™, prepared according to the method described in U.S. Pat. […] Water was fed for the control group. For the organ weight study, animals were sacrificed after the 30-day study, followed by collecting spleens and thymus for weight measurement. For the other studies, animals were harvested for further analyses as described below. Statistical differences between groups were calculated using SPSS 11.0 with student t test plus Dunnett method.

[3] = Weights of immune-related organs (spleen, thymus) after 30-day feeding; settings: for Spleen Weight change / Thymus Weight change: mice, n=10, 30 days
Description: as §1, §2

[4] = tested on: Sheep red blood cell (SRBC); test: Mouse plasma hemolysin assay; settings: for Antibody integrand: plasma on day 5 after SRBC injection, n=10
Description: For each study, forty mice were divided into 4 groups with 10 mice per group (n=10). These four groups were control, theaflavin (low), theaflavin (mid), and theaflavin (high). The latter three were theaflavin-treated groups in which theaflavin (capsule, Xiayie™, prepared according to the method described in U.S. Pat. No. 8,282,970) was fed to mice at a dose of 83 mg, 250 mg, and 500 mg per kg body weight per day for 30 days for the low, mid, and high group, respectively. Water was fed for the control group. For the organ weight study, animals were sacrificed after the 30-day study, followed by collecting spleens and thymus for weight measurement. For the other studies, animals were harvested for further analyses as described below. Statistical differences between groups were calculated using SPSS 11.0 with student t test plus Dunnett method.
Each mouse was given a single injection of 0.2 ml of 2% SRBC from the above-described preparation. On day 5 after the SRBC injection, the plasma was collected by centrifuging the mouse eye blood at 2000 r/min for 10 min, then was stored into a sterile tube. With a micro hemagglutinin-assay plate, the plasma was diluted to a series of concentrations, then […] of 0.5% SRBC suspension was added. The contents were is mixed by vortexing and incubated for 3 h in a 37° C., 5% CO2 incubator, after which the hemagglutination was observed under microscope. The data were presented as antibody integrand.

[5] = theaflavin treatment for 30 days, compared to control

Compound: O=c1c(O)cc([C@H]2Oc3cc(O)cc(O)c3C[C@H]2O)cc2c([C@H]3Oc4cc(O)cc(O)c4C[C@H]3O)cc(O)c(O)c12 [Theaflavin, theaflavin]
- Footpad swelling ([1]; 167 mg/kg.BW (Low)): 1.46 ± 0.39 mm
- Footpad swelling ([1]; 333 mg/kg.BW (Mid)): 1.24 ± 0.24 mm
- Footpad swelling ([1]; 500 mg/kg.BW (High)): 1.53 ± 0.49 mm
- mouse footpad swelling compared to control ([1]; theaflavin low and high groups): statistically significant mouse footpad swelling
- BW change ([2]; study I, 167 mg/kg.BW (Low)): 12.70 ± 0.82 g
- BW change ([2]; study I, 333 mg/kg.BW (Mid)): 12.80 ± 0.79 g
- BW change ([2]; study I, 500 mg/kg.BW (High)): 12.50 ± 0.71 g
- BW change ([2]; study II, 167 mg/kg.BW (Low)): 12.00 ± 0.67 g
- BW change ([2]; study II, 333 mg/kg.BW (Mid)): 11.80 ± 0.63 g
- BW change ([2]; study II, 500 mg/kg.BW (High)): 12.70 ± 0.92 g
- BW change ([2]; study III, 167 mg/kg.BW (Low)): 11.90 ± 0.88 g
- BW change ([2]; study III, 333 mg/kg.BW (Mid)): 12.80 ± 0.63 g
- BW change ([2]; study III, 500 mg/kg.BW (High)): 11.90 ± 0.57 g
- BW change ([2]; study IV, 167 mg/kg.BW (Low)): 13.00 ± 0.94 g
- BW change ([2]; study IV, 333 mg/kg.BW (Mid)): 11.90 ± 0.77 g
- BW change ([2]; study IV, 500 mg/kg.BW (High)): 12.00 ± 0.47 g
- effect on mice body weights [2, 5]: no effect
- Spleen Weight change ([3]; 167 mg/kg.BW (Low)): 0.47 ± 0.13%
- Thymus Weight change ([3]; 167 mg/kg.BW (Low)): 0.42 ± 0.07%
- Spleen Weight change ([3]; 333 mg/kg.BW (Mid)): 0.46 ± 0.10%
- Thymus Weight change ([3]; 333 mg/kg.BW (Mid)): 0.43 ± 0.12%
- Spleen Weight change ([3]; 500 mg/kg.BW (High)): 0.45 ± 0.07%
- Thymus Weight change ([3]; 500 mg/kg.BW (High)): 0.42 ± 0.11%
- effect on weights of immune system related organs, i.e., spleen and thymus [3, 5]: no effect
- Antibody integrand ([4]; 167 mg/kg.BW (Low)): 143.80 ± 35.23
- Antibody integrand ([4]; 333 mg/kg.BW (Mid)): 123.20 ± 20.37
- Antibody integrand ([4]; 500 mg/kg.BW (High)): 146.40 ± 26.46
- mouse plasma hemolysin assay result compared to control ([4]; theaflavin low and high groups): statistically significant results

From patent US20150118267A1, “METHOD OF USING THEAFLAVIN” (priority 2013, published 2015)
